Results from patent US9745289B2, “Aldosterone synthase inhibitors” (Boehringer Ingelheim International GmbH, priority 2014, dated 2017).

target: cortisol synthase (CYP11B1) (Macaca fascicularis, UniProt A0A2K5ULY1); assay: Inhibition of Cortisol Synthesis; assay type: biochemical, cynomolgus monkey; details: cynomolgus adrenal gland mitochondria; 150 units of CYP11B1, 11-deoxycortisol as substrate, cortisol measured as product
Experimental: The aldosterone synthase and cortisol synthase inhibition assays employ cynomolgus adrenal gland mitochondria as the source of aldosterone synthase (CYP11B2) and cortisol synthase (CYP11B1). […] Activity of CYP11B2 and CYP11B1 in these preparations is defined as the amount of enzyme that generates 1 pmol of product in one hour under the conditions described.
Assays are performed in 96-well format in a final volume of 60 μL/well, containing 100 mM potassium phosphate, pH 7.4, 1% (v/v) DMSO, and additionally, 2 μM of corticosterone and 50 units of CYP11B2 activity. Reactions are started by the addition of NADPH to 1 mM and allowed to proceed for 90 minutes at 37° C. Reactions are terminated by the addition of 60 μL of MeCN containing an internal standard for mass spectrometry. One hundred microliters are then transferred to a glass filter plate and centrifuged at 570×g for 5 minutes and the filtrate is collected. Reaction product aldosterone is quantified by mass spectrometry. To determine the assay blank value (0% activity), NADPH is omitted from some reactions.
Dose dependent inhibition is quantified by the inclusion of compound at various concentrations. Maximum activity (100%) is defined by reactions containing NADPH, but without compound.
Assays are performed as for aldosterone synthase except for the use of 150 units of CYP11B1, 11-deoxycortisol as substrate and cortisol measured as product.

| SMILES | IC50 [µM] |
| --- | --- |
| CN(Cc1cncc(C2COc3c(cccc3C(N)=O)O2)c1)C(=O)C1CC1 (single isomer, unassigned) [Cpd 24B, 2-{5-[(Cyclopropanecarbonyl-methyl-amino)-methyl]-pyridin-3-yl}-2,3-dihydro-benzo[1,4]dioxine-5-carboxylic acid amide] | 25 |
| CS(=N)(=O)Cc1cncc(C2COc3c(C#N)cccc3O2)c1 (single isomer, unassigned) [Cpd 62BA, 2-(5-{[imino(methyl)oxo-λ^6-sulfanyl]methyl}pyridin-3-yl)-2,3-dihydro-1,4-benzodioxine-5-carbonitrile] | 14 |
| N#Cc1cccc2c1OCC(c1cncc(CN3CCOCC3=O)c1)O2 (single isomer, unassigned) [Cpd 36A, 2-[5-(3-Oxo-morpholin-4-ylmethyl)-pyridin-3-yl]-2,3-dihydro-benzo[1,4]dioxine-5-carbonitrile] | > 30 |
| N#Cc1cccc2c1OCC(c1cncc(CN3CCCCS3(=O)=O)c1)O2 (single isomer, unassigned) [Cpd 41A, 2-[5-(1,1-Dioxo-1lambda6-[1,2]thiazinan-2-ylmethyl)-pyridin-3-yl]-2,3-dihydro-benzo[1,4]dioxine-5-carbonitrile] | 24 |
| CC(=O)N1CCC[C@@H](Oc2cncc(C3COc4c(cccc4C(N)=O)O3)c2)C1 (single isomer, unassigned) [Cpd 7B] | 19 |
| NC(=O)c1cccc2c1OCC(c1cncc3c1CCC3O)O2 (single isomer, unassigned) [Cpd 52BB, 2-(7-Hydroxy-6,7-dihydro-5H-[2]pyrindin-4-yl)-2,3-dihydro-benzo[1,4]dioxine-5-carboxylic acid amide] | 13 |
| N#Cc1cccc2c1OCC(c1cncc(CNC(=O)C3CC3)c1)O2 (single isomer, unassigned) [Cpd 39B, Cyclopropanecarboxylic acid [5-(5-cyano-2,3-dihydro-benzo[1,4]dioxin-2-yl)-pyridin-3-ylmethyl]-amide] | > 30 |
| Cc1ccncc1C1COc2c(cccc2C(N)=O)O1 (single isomer, unassigned) [Cpd 23B, 2-(4-Methyl-pyridin-3-yl)-2,3-dihydro-benzo[1,4]dioxine-5-carboxylic acid amide] | 2 |
| CC(=O)N1CCC(Oc2cncc(C3COc4c(C#N)cccc4O3)c2)CC1 (single isomer, unassigned) [Cpd 38A, 2-[5-(1-Acetyl-piperidin-4-yloxy)-pyridin-3-yl]-2,3-dihydro-benzo[1,4]dioxine-5-carbonitrile] | 15 |
| NC(=O)c1cccc2c1OCC(c1cncc(C(F)F)c1)O2 (single isomer, unassigned) [Cpd 22A, 2-(5-Difluoromethyl-pyridin-3-yl)-2,3-dihydro-benzo[1,4]dioxlne-5-carboxylic acid amide] | 2 |
| N#Cc1cccc2c1OCC(c1cncc(-c3ccc(S(N)(=O)=O)cc3)c1)O2 (single isomer, unassigned) [Cpd 40B, 4-[5-(5-Cyano-2,3-dihydro-benzo[1,4]dioxin-2-yl)-pyridin-3-yl]-benzenesulfonamide] | 11 |
| Cc1c(C(C)O)cncc1C1COc2c(cccc2C(N)=O)O1 (single isomer, unassigned) [Cpd 27B, 2-[5-(1-Hydroxy-ethyl)-4-methyl-pyridin-3-yl]-2,3-dihydro-benzo[1,4]dioxine-5-carboxylic acid amide] | 5 |
| N#CC1(c2cncc(C3COc4c(cccc4C(N)=O)O3)c2)CC1 (single isomer, unassigned) [Cpd 2A, 2-[5-(1-Cyano-cyclopropyl)-pyridin-3-yl]-2,3-dihydro-benzo[1,4]dioxine-5-carboxylic acid amide] | 0.06 |
| Cc1c(F)cncc1C1COc2c(cccc2C(N)=O)O1 (single isomer, unassigned) [Cpd 21B, 2-(5-Fluoro-4-methyl-pyridin-3-yl)-2,3-dihydro-benzo[1,4]dioxine-5-carboxylic acid amide] | 5.3 |
| CNC(=O)c1cccc2c1OCC(c1cncc(OC3CCN(C(C)=O)CC3)c1)O2 (single isomer, unassigned) [Cpd 33A, 2-[5-(1-Acetyl-piperidin-4-yloxy)-pyridin-3-yl]-2,3-dihydro-benzo[1,4]dioxine-5-carboxylic acid methylamide] | > 30 |
| N#Cc1cccc2c1OCC(c1cncc(CNC(=O)C(F)(F)F)c1)O2 (centres unmarked) [Cpd 53, N-[5-(5-Cyano-2,3-dihydro-benzo[1,4]dioxin-2-yl)-pyridin-3-ylmethyl]-2,2,2-trifluoro-acetamide] | 24 |
| NC(=O)c1cccc2c1OCC(c1cncc(-c3ccc(S(N)(=O)=O)cc3)c1)O2 (single isomer, unassigned) [Cpd 16B, 2-[5-(4-Sulfamoyl-phenyl)-pyridin-3-yl]-2,3-dihydro-benzo[1,4]dioxine-5-carboxylic acid amide] | 0.054 |
| CN(Cc1cncc(C2COc3c(cccc3C(N)=O)O2)c1)C(=O)C1CC1 (single isomer, unassigned) [Cpd 24A, 2-{5-[(Cyclopropanecarbonyl-methyl-amino)-methyl]-pyridin-3-yl}-2,3-dihydro-benzo[1,4]dioxine-5-carboxylic acid amide] | 7 |
| NC(=O)c1cccc2c1OCC(c1cncc3c1CCC3O)O2 (single isomer, unassigned) [Cpd 52AB, 2-(7-Hydroxy-6,7-dihydro-5H-[2]pyrindin-4-yl)-2,3-dihydro-benzo[1,4]dioxine-5-carboxylic acid amide] | 0.82 |
| NC(=O)c1cccc2c1OCC(c1cncc(CC(=O)N3CCC(F)(F)CC3)c1)O2 (single isomer, unassigned) [Cpd 30A, 2-{5-[2-(4,4-Difluoro-piperidin-1-yl)-2-oxo-ethyl]-pyridin-3-yl}-2,3-dihydro-benzo[1,4]dioxine-5-carboxylic acid amide] | 22 |
| N#Cc1cccc2c1OCC(c1cncc(CN3CCOCC3=O)c1)O2 (single isomer, unassigned) [Cpd 36B, 2-[5-(3-Oxo-morpholin-4-ylmethyl)-pyridin-3-yl]-2,3-dihydro-benzo[1,4]dioxine-5-carbonitrile] | 5.8 |
| CNC(=O)c1cccc2c1OCC(c1cncc(OC3CCN(C(C)=O)CC3)c1)O2 (single isomer, unassigned) [Cpd 33B, 2-[5-(1-Acetyl-piperidin-4-yloxy)-pyridin-3-yl]-2,3-dihydro-benzo[1,4]dioxine-5-carboxylic acid methylamide] | > 30 |
| CC(=O)N1CC(Oc2cncc(C3COc4c(cccc4C(N)=O)O3)c2)C1 (single isomer, unassigned) [Cpd 19A, 2-[5-(1-Acetyl-azetidin-3-yloxy)-pyridin-3-yl]-2,3-dihydro-benzo[1,4]dioxine-5-carboxylic acid amide] | > 30 |
| CC(=O)N1CCC(Oc2cncc(C3COc4c(cccc4C(N)=O)O3)c2)CC1 (single isomer, unassigned) [Cpd 12B, 2-[5-(1-Acetyl-piperidin-4-yloxy)-pyridin-3-yl]-2,3-dihydro-benzo[1,4]dioxine-5-carboxylic acid amide] | 2 |
| CNC(=O)c1cccc2c1OCC(c1cncc(C(F)(F)F)c1)O2 (single isomer, unassigned) [Cpd 28A, 2-(5-Trifluoromethyl-pyridin-3-yl)-2,3-dihydro-benzo[1,4]dioxine-5-carboxylic acid methylamide] | > 30 |
| CCS(=O)(=O)NC(c1cncc(C2COc3c(cccc3C(N)=O)O2)c1)C1CC1 (single isomer, unassigned) [Cpd 60BB] | > 30 |
